We go through 30 compounds from patent publication US11014911B2, “CDK2 inhibitors” (Pfizer Inc., priority 2019, dated 2021).

Each structure is given as a SMILES string.

Sequence of GSK3β (H350L) (P49841 whole entry, stated change not applied): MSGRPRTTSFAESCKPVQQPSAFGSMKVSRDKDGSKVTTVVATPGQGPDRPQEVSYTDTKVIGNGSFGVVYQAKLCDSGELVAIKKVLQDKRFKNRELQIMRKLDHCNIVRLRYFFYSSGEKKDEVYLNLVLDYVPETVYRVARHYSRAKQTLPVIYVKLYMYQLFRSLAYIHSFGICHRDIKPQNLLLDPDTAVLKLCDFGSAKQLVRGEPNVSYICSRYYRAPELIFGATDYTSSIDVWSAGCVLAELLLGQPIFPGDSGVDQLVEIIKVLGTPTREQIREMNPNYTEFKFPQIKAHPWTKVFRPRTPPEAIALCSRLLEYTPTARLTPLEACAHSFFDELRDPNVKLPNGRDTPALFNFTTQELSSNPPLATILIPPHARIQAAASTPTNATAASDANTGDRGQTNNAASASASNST

The first assay concerns the target CDK2/Cyclin E1 full length (Homo sapiens (Human), UniProt P24941). Nature of the assay: CDK2/Cyclin E1 full length mobility shift assay.
Settings: not given
Type of assay: biochemical.
As a reminder, the Ki is a measure of affinity in units of concentration, obtained from inhibition or displacement. Consider `CCCNC(=O)O[C@@H]1CC[C@H](c2cc(NC(=O)Cc3ccc(OC)cn3)n[nH]2)C1` (stereo in doubt) [Example 187, (1R,3S)-3-(3-{[(5-methoxypyridin-2-yl)acetyl]amino}-1H-pyrazol-5-yl)cyclopentyl propylcarbamate], for which the Ki came out at 4.59 nM.

`C[C@@H]1CCN1C(=O)O[C@@H]1CC[C@H](c2cc(NC(=O)Cc3cnn(C)c3)n[nH]2)C1` [Example 587, (1R,3S)-3-(3-{[(1-methyl-1H-pyrazol-4-yl)acetyl]amino}-1H-pyrazol-5-yl)cyclopentyl (2R)-2-methylazetidine-1-carboxylate]: the Ki came out at 2.77 nM.

Take `C[C@H]1CCN1C(=O)O[C@@H]1CC[C@H](c2cc(NC(=O)Cc3cnn(C)c3)n[nH]2)C1` [Example 588, (1R,3S)-3-(3-{[(1-methyl-1H-pyrazol-4-yl)acetyl]amino}-1H-pyrazol-5-yl)cyclopentyl (2S)-2-methylazetidine-1-carboxylate]: the Ki is 0.75 nM.

For `Cc1cnc(CC(=O)Nc2cc([C@H]3CC[C@@H](OC(=O)N4CC[C@@H]4C)C3)[nH]n2)cn1` [Example 591, (1R,3S)-3-(3-{[(5-methylpyrazin-2-yl)acetyl]amino}-1H-pyrazol-5-yl)cyclopentyl (2S)-2-methylazetidine-1-carboxylate], the Ki turned out to be 1.67 nM.

For the compound `COc1cnc(CC(=O)Nc2cc([C@H]3CC[C@@H](OC(=O)N4CC[C@@H]4C)C3)[nH]n2)cn1` [Example 592, (1R,3S)-3-(3-{[(5-methoxypyrazin-2-yl)acetyl]amino}-1H-pyrazol-5-yl)cyclopentyl (2S)-2-methylazetidine-1-carboxylate], the Ki came to 2.27 nM.

For `COCCn1nccc1C(=O)Nc1cc([C@H]2CC[C@@H](OC(=O)N3CC[C@H]3C)C2)[nH]n1` [Example 593, (1R,3S)-3-[3-({[1-(2-methoxyethyl)-1H-pyrazol-5-yl]carbonyl}amino)-1H-pyrazol-5-yl]cyclopentyl (2R)-2-methylazetidine-1-carboxylate], the Ki is 2.21 nM.

For `COCc1cc(C(=O)Nc2cc([C@H]3CC[C@@H](OC(=O)N4CC[C@@H]4C)C3)[nH]n2)n(C)n1` [Example 595, (1R,3S)-3-[3-({[3-(methoxymethyl)-1-methyl-1H-pyrazol-5-yl]carbonyl}amino)-1H-pyrazol-5-yl]cyclopentyl (2S)-2-methylazetidine-1-carboxylate], the Ki is 1.52 nM.

Regarding `C[C@H]1CCN1C(=O)O[C@@H]1CC[C@H](c2cc(NC(=O)c3ccnn3CCN(C)C)n[nH]2)C1` [Example 596, (1R,3S)-3-{3-[({1-[2-(dimethylamino)ethyl]-1H-pyrazol-5-yl}carbonyl)amino]-1H-pyrazol-5-yl}cyclopentyl (2S)-2-methylazetidine-1-carboxylate], the Ki came to 1.75 nM.

On to `COc1cnc(CC(=O)Nc2cc([C@H]3CC[C@@H](OC(=O)N4CCC4(C)C)C3)[nH]n2)cn1` [Example 602, (1R,3S)-3-(3-{[(5-methoxypyrazin-2-yl)acetyl]amino}-1H-pyrazol-5-yl)cyclopentyl 2,2-dimethylazetidine-1-carboxylate], for which the Ki was 0.3 nM.

`Cc1cc(CC(=O)Nc2cc([C@H]3CC[C@@H](OC(=O)N4[C@H](C)C[C@@H]4C)C3)[nH]n2)on1` [Example 607, (1R,3S)-3-(3-{[(3-methyl-1,2-oxazol-5-yl)acetyl]amino}-1H-pyrazol-5-yl)cyclopentyl (2R,4S)-2,4-dimethylazetidine-1-carboxylate]: the Ki was determined as 1.9 nM.

As to `Cc1cnc(CC(=O)Nc2cc([C@H]3CC[C@@H](OC(=O)N4[C@@H](C)C[C@@H]4C)C3)[nH]n2)cn1` [Example 608, (1R,3S)-3-(3-{[(5-methylpyrazin-2-y)acetyl]amino}-1H-pyrazol-5-yl)cyclopentyl (2S,4S)-2,4-dimethylazetidine-1-carboxylate], the Ki stood at 1.11 nM.

With `COc1cc(CC(=O)Nc2cc([C@H]3CC[C@@H](OC(=O)N4[C@H](C)C[C@H]4C)C3)[nH]n2)ccn1` [Example 609, (1R,3S)-3-(3-{[(2-methoxypyridin-4-yl)acetyl]amino}-1H-pyrazol-5-yl)cyclopentyl (2R,4R)-2,4-dimethylazetidine-1-carboxylate], the Ki is 4.81 nM.

Take `COc1cnc(CC(=O)Nc2cc([C@H]3CC[C@@H](OC(=O)N4[C@@H](C)C[C@@H]4C)C3)[nH]n2)cn1` [Example 610, (1R,3S)-3-(3-{[(5-methoxypyrazin-2-yl)acetyl]amino}-1H-pyrazol-5-yl)cyclopentyl (2S,4S)-2,4-dimethylazetidine-1-carboxylate]: the Ki was determined as 1.04 nM.

As to `COc1cc(CC(=O)Nc2cc([C@H]3CC[C@@H](OC(=O)N4C[C@H](O)[C@H]4C)C3)[nH]n2)ccn1` [Example 613, (1R,3S)-3-(3-{[(2-methoxypyridin-4-yl)acetyl]amino}-1H-pyrazol-5-yl)cyclopentyl (2R,3S)-3-hydroxy-2-methylazetidine-1-carboxylate], the Ki came out at 2.98 nM.

For the compound `COc1ccc(CC(=O)Nc2cc([C@H]3CC[C@@H](OC(=O)N4C[C@@H](O)[C@@H]4C)C3)[nH]n2)cn1` [Example 615, (1R,3S)-3-(3-{[(6-methoxypyridin-3-yl)acetyl]amino}-1H-pyrazol-5-yl)cyclopentyl (2S,3R)-3-hydroxy-2-methylazetidine-1-carboxylate], the Ki was found to be 1.99 nM.

On to `COc1ccc(CC(=O)Nc2cc([C@H]3CC[C@@H](OC(=O)N4C[C@H](OC)[C@H]4C)C3)[nH]n2)cn1` [Example 620, (1R,3S)-3-(3-{[(6-methoxypyridin-3-yl)acetyl]amino}-1H-pyrazol-5-yl)cyclopentyl (2R,3S)-3-methoxy-2-methylazetidine-1-carboxylate], for which the Ki was found to be 3.91 nM.

On to `Cc1cc(CC(=O)Nc2cc([C@H]3CC[C@@H](OC(=O)N4C[C@@](C)(O)[C@@H]4C)C3)[nH]n2)on1` [Example 622, (1R,3S)-3-(3-{[(3-methyl-1,2-oxazol-5-yl)acetyl]amino}-1H-pyrazol-5-yl)cyclopentyl (2S,3R)-3-hydroxy-2,3-dimethylazetidine-1-carboxylate], for which the Ki came out at 4 nM.

In the case of `COc1ccc(CC(=O)Nc2cc([C@@H]3CC[C@H](OC(=O)N4C[C@@](C)(O)[C@@H]4C)C3)[nH]n2)cn1` [Example 626, (1S,3R)-3-(3-{[(6-methoxypyridin-3-yl)acetyl]amino}-1H-pyrazol-5-yl)cyclopentyl (2S,3R)-3-hydroxy-2,3-dimethylazetidine-1-carboxylate], the Ki stood at 4.73 nM.

For `C[C@H]1CCCN1C(=O)O[C@@H]1CC[C@H](c2cc(NC(=O)Cc3ccccn3)n[nH]2)C1` [Example 630, (1R,3S)-3-{3-[(pyridin-2-ylacetyl)amino]-1H-pyrazol-5-yl}cyclopentyl (2S)-2-methylpyrrolidine-1-carboxylate], the Ki was determined as 1.43 nM.

Regarding `Cc1cc(CC(=O)Nc2cc([C@H]3CC[C@@H](OC(=O)N4CCC[C@H]4C)C3)[nH]n2)on1` [Example 633, (1R,3S)-3-(3-{[(3-methyl-1,2-oxazol-5-yl)acetyl]amino}-1H-pyrazol-5-yl)cyclopentyl (2R)-2-methylpyrrolidine-1-carboxylate], the Ki was found to be 2.11 nM.

On to `Cc1coc(CC(=O)Nc2cc([C@H]3CC[C@@H](OC(=O)N4CCC[C@@H]4C)C3)[nH]n2)n1` [Example 636, (1R,3S)-3-(3-{[(4-methyl-1,3-oxazol-2-yl)acetyl]amino}-1H-pyrazol-5-yl)cyclopentyl (2S)-2-methylpyrrolidine-1-carboxylate], for which the Ki amounted to 0.83 nM.

`Cc1csc(CC(=O)Nc2cc([C@H]3CC[C@@H](OC(=O)N4CCC[C@@H]4C)C3)[nH]n2)n1` [Example 637, (1R,3S)-3-(3-{[(4-methyl-1,3-thiazol-2-yl)acetyl]amino}-1H-pyrazol-5-yl)cyclopentyl (2S)-2-methylpyrrolidine-1-carboxylate]: the inhibition constant (Ki) was 1.47 nM.

Turning to `Cc1cc(CC(=O)Nc2cc([C@H]3CC[C@@H](OC(=O)N4CCCC[C@@H]4C)C3)[nH]n2)on1` [Example 640, (1R,3S)-3-(3-{[(3-methyl-1,2-oxazol-5-yl)acetyl]amino}-1H-pyrazol-5-yl)cyclopentyl (2S)-2-methylpiperidine-1-carboxylate], the Ki was 0.48 nM.

As for `Cc1cc(CC(=O)Nc2cc([C@H]3CC[C@@H](OC(=O)N4CCOC[C@H]4C)C3)[nH]n2)on1` [Example 643, (1R,3S)-3-(3-{[(3-methyl-1,2-oxazol-5-yl)acetyl]amino}-1H-pyrazol-5-yl)cyclopentyl (3R)-3-methylmorpholine-4-carboxylate], the Ki was 1.84 nM.

The next assay addresses GSK3β (H350L) (Homo sapiens (Human), UniProt P49841).
Assay: not given
The note with it: read-out: GSK3β Ki.
For the compound `CCCNC(=O)O[C@@H]1CC[C@H](c2cc(NC(=O)Cc3ccc(OC)cn3)n[nH]2)C1` (stereo in doubt) [Example 187, (1R,3S)-3-(3-{[(5-methoxypyridin-2-yl)acetyl]amino}-1H-pyrazol-5-yl)cyclopentyl propylcarbamate], the Ki came to 23.9 nM.

`CCCNC(=O)O[C@@H]1CC[C@H](c2cc(NC(=O)Cc3ccnc(OC)c3)[nH]n2)C1` [Example 1, (1R,3S)-3-(3-{[(2-methoxypyridin-4-yl)acetyl]amino}-1H-pyrazol-5-yl)cyclopentyl propylcarbamate]: the Ki was determined as 26.2 nM.

In the case of `CCCNC(=O)O[C@H]1CC[C@@H](c2cc(NC(=O)Cc3ccnc(OC)c3)n[nH]2)C1` [Example 19], the Ki turned out to be 20.8 nM.

For `C[C@H]1CCCN1C(=O)O[C@@H]1CC[C@H](c2cc(NC(=O)Cc3ccn(C)n3)n[nH]2)C1` [Example 140], the inhibitory constant (Ki) is 15.3 nM.

In the case of `COc1ccc(CC(=O)Nc2cc([C@@H]3CC[C@H](OC(=O)N4CCC4(C)C)C3)[nH]n2)cn1` [Example 145], the Ki was 0.95 nM.

Take `CC[C@H](C)NC(=O)O[C@@H]1CC[C@H](c2cc(NC(=O)Cc3ccccc3S(C)(=O)=O)n[nH]2)C1` [Example 370, (1R,3S)-3-[3-({[2-(methylsulfonyl)phenyl]acetyl}amino)-1H-pyrazol-5-yl]cyclopentyl (2S)-butan-2-ylcarbamate]: the Ki is 50.8 nM.

Consider `C[C@H]1CCCN1C(=O)O[C@@H]1CC[C@H](c2cc(NC(=O)Cc3ccn(C)n3)n[nH]2)C1` [Example 631, (1R,3S)-3-(3-{[(1-methyl-1H-pyrazol-3-yl)acetyl]amino}-1H-pyrazol-5-yl)cyclopentyl (2S)-2-methylpyrrolidine-1-carboxylate], for which the Ki came to 11.8 nM.
